This passage reports mass density and refractive index results from the NIST ThermoML archive (doi:10.1021/acs.jced.5b00950).

The structures appear in SMILES notation. Numbers after ± are expanded uncertainties.

The conditions of data set [1]: 298.2 K; 101.33 kPa; Liquid; Vibrating tube method.
Data set [2] can be described thus: refractive index (Na D-line) (dimensionless). The note with it: 298.2 K; 101.33 kPa; Liquid; Standard Abbe refractometry.

What is called mass density is mass per unit of volume. Usually refractive index stands for a measure of how strongly the sample bends light. For the compound `CCCC(=O)O` [butanoic acid], in data set [1], the mass density is 952.8 ± 2 kg/m3. Moreover, the refractive index in data set [2] is reported as 1.3964 ± 0.002.
With `CC(=O)Oc1ccccc1` [phenyl ethanoate], the mass density in data set [1] was 1073 ± 2 kg/m3. Also, in data set [2], the refractive index came out at 1.5012 ± 0.002.
The corresponding values for `O` [water] are 999.9 ± 2 kg/m3 and 1.3324 ± 0.002.
